Data: patent US20260248157A1, “COMPOSITIONS FOR REDUCING METHANE EMISSION” (MOOTRAL INNOVATIONS LIMITED, priority 2022, published 2026)
Where two headings read alike, the source gives them in different places.

Assays:
[1] = test system: Methanococcus maripaludis; assay: Inhibition of methane production by Methanococcus maripaludis culture (pressure drop after 24 h); format: cell-based; settings: for Inhibition of methane production by bromoform on its own: bromoform alone at 0.12 μM (very low concentration); for Fold increase of Compound X combined with bromoform as compared to Compound X alone: bromoform 0.12 μM
Procedure: For this experiment, bromoform was prepped at 100 mM by adding 8.75 μl bromoform to 991 μl DMSO. This was diluted 10× to generate a 10 mM solution and further diluted to generate 0.12 mM stock solutions. Compound X stock solutions were prepared in DMSO (except for tannic acid, which was diluted in deionized water), to achieve the desired stock solutions required for testing. The experiment was set up by adding 5 ml of M141 medium (https://www.dsmz.de/microorganisms/medium/pdf/DSMZ_Medium141.pdf) to a screw cap Hungate tube followed by the addition of 5 μl Compound X and/or 5 μl bromoform or 5/10 μl DMSO as follows: • Tube 1: DMSO (10 μl) • Tube 2: Bromoform (5 μl, 0.120 mM) (120 nM final)+5 μl DMSO • Tube 3: Compound X (5 μl stock solution)+5 μl DMSO • Tube 4: Bromoform (5 μl 0.120 mM) (120 nM final)+Compound X (5 μl stock solution)
The concentration of Bromoform was fixed at 0.12 μM.
After the addition of the test substances, 500 μl of an overnight M. maripaludis culture was added to each reaction tube. Each tube was gassed with 80% H2/20% CO2 to 240 kPa and incubated at 37° C. for 24 h.
After the 24 h incubation the pressure inside the tube was measured using a manometer. Given that 5 moles of H2/CO2 are consumed to generate 1 mole of CH4 the drop in pressure observed was used to calculate the amount of methane by the control and test reactions from which a percent inhibition was calculated.
Table 1 below summarises the range of concentrations and the fold increase in inhibition of Compound X when tested with bromoform relative to the level of inhibition for Compound X when tested alone.

rumen fluid = assay: In vitro rumen fluid fermentation assay (Gas Test), methane by gas chromatography; format: cell-based, cows; settings: for Synergistic effect in methane inhibition: combined with iodoform
Procedure: Various samples of single species, extracts, two-species combinations, and three-species combinations were assessed for their potential to inhibit methane production. This evaluation was carried out using in vitro fermentation assays known as Gas Tests. In each Gas Test, 250 mg of total meal ration (TMR) comprising 30% grass, 30% corn, and 40% complete feed was introduced into 100 ml serum vials as the substrate for the fermentation process. Rumen fluid, obtained from fistulated cows at the University of Reading, was mixed with degassed reaction buffer (1.6 L) and supplemented with Na2S (82 ml). Subsequently, 30 ml of the rumen fluid/buffer mixture was added to each serum vial.
The test substances were dissolved in 100% ethanol, and 100 μl of each test substance was added to the serum vials containing the rumen fluid/buffer mixture. All test substances and controls were examined in triplicate for each experiment. Once the test substances and controls were added, the vials were sealed with butyl rubber stoppers and aluminium crimps, then incubated at 39° C. for 24 hours. Following incubation, gas samples were collected from both the control and test vials, and methane levels were determined using gas chromatography.
For each test compound, the “percentage inhibition of methane produced” was calculated using the following formula: […]
The test substances underwent evaluation in three independent Gas Tests, and an average percentage inhibition was calculated for each substance.
Synergy between substances was determined using the Bliss Independence Model using the following equation: […]
Where IAB is the predicted percentage methane inhibition of both substances together and IA and IB are the observed percentage methane inhibitions of the individual substances. The predicted percentage methane inhibition of both substances (IAB) and the observed percent methane inhibition of both substances (Iob) are used to calculate the Combination index (Ci) as follows:
If the Ci<1 then the two substances are synergistic.
Synergy between substances was determined using the following calculation:
Where IABC is the predicted percentage methane inhibition of the three substances together and IA, IB and IC are the observed percentage methane inhibitions of the individual substances.
The predicted percentage methane inhibition of the three substances (IABC) and the observed percent methane inhibition of the combination of the three substances (Iob) are used to calculate the Combination index (Ci) as follows: […]

[2] = Bos taurus, 24 h, read-out: Average of observed methane inhibition (%)
[3] = Bos taurus, sole compound, 25 μM, 24 h, three Gas Tests, read-out: Average of observed methane inhibition (%)

## BrC(Br)Br [Bromoform, bromoform]
[1]
  Inhibition of methane production by bromoform on its own: too low to inhibit methanogen on its own
[1]; listed as bromoform
  Inhibition of methane production by bromoform on its own: does not reduce or inhibit methane production
Rumen fluid; [2]
  inhibition at 0.1 µM: 1.3%
  inhibition at 1 µM: 92.4%

## C=CCSSCC=C [Diallyl disulfide, diallyl disulfide]
[1]; Compound X 15.6 μM-250 μM (range tested) + bromoform 0.12 μM, 24 h
  Methane inhibition in combination with Bromoform (%): 88.8%
[1]; Compound X 15.6 μM-250 μM (range tested)
  Fold increase of Compound X combined with bromoform as compared to Compound X alone: 88.8 fold
[1]; Methanococcus maripaludis, 24 h, read-out: Methane inhibition of Compound X as a sole compound (%)
  inhibition at 15.6 µM: 1%
Rumen fluid; [2]
  inhibition at 25 µM: 5%

## C=CCSSSCC=C [Diallyl trisulfide, diallyl trisulfide]
[1]; Compound X 125 μM + bromoform 0.12 μM, 24 h
  Methane inhibition in combination with Bromoform (%): 27.1%
[1]; Compound X 125 μM
  Fold increase of Compound X combined with bromoform as compared to Compound X alone: 27.1 fold
[1]; Methanococcus maripaludis, Compound X 125 μM alone, 24 h, read-out: Methane inhibition of Compound X as a sole compound (%)
  inhibition at 125 µM: 1%
Rumen fluid; [3]
  inhibition at 25 µM: 11%
Rumen fluid
  Synergistic effect in methane inhibition: synergistic effects were observed

## BrCBr [Dibromomethane, dibromomethane]
Rumen fluid; [2]
  inhibition at 0.5 µM: 14.5%
  inhibition at 10 µM: 99%
Rumen fluid
  Synergistic effect in methane inhibition: synergistic effects were observed

## CCCSSCCC [Dipropyl disulfide, dipropyl disulfide]
[1]; Compound X 1 mM + bromoform 0.12 μM, 24 h
  Methane inhibition in combination with Bromoform (%): 43.5%
[1]; Compound X 1 mM
  Fold increase of Compound X combined with bromoform as compared to Compound X alone: 1.57 fold
[1]; Methanococcus maripaludis, Compound X 1 mM alone, 24 h, read-out: Methane inhibition of Compound X as a sole compound (%)
  inhibition at 1000 µM: 27.7%
Rumen fluid; Bos taurus, sole compound, 30 μM, 24 h, three Gas Tests, read-out: Average of observed methane inhibition (%)
  inhibition at 30 µM: 3%
Rumen fluid
  Synergistic effect in methane inhibition: synergistic effects were observed

## IC(I)I [Iodoform, iodoform]
Rumen fluid; Bos taurus, sole compound, 2 μM, 24 h, three Gas Tests, read-out: Average of observed methane inhibition (%)
  inhibition at 2 µM: 40.8%
Rumen fluid; Bos taurus, sole compound, 10 μM, 24 h, three Gas Tests, read-out: Average of observed methane inhibition (%)
  inhibition at 10 µM: 98.3%

## O=C1C[C@@H](c2ccc(O)cc2)Oc2cc(O)cc(O)c21 [Naringenin]
[1]; Compound X 100 μM + bromoform 0.12 μM, 24 h
  Methane inhibition in combination with Bromoform (%): 90.3%
[1]; Compound X 100 μM
  Fold increase of Compound X combined with bromoform as compared to Compound X alone: 90.3 fold
[1]; Methanococcus maripaludis, Compound X 100 μM alone, 24 h, read-out: Methane inhibition of Compound X as a sole compound (%)
  inhibition at 100 µM: 1%
Rumen fluid; Bos taurus, sole compound, 100 μM, 24 h, three Gas Tests, read-out: Average of observed methane inhibition (%)
  inhibition at 100 µM: 10%
Rumen fluid
  Synergistic effect in methane inhibition: synergistic effects were observed

## CCCCCCC(C=O)=Cc1ccccc1 [α-Hexylcinnamaldehyde]
[1]; Compound X 31.25 μM + bromoform 0.12 μM, 24 h
  Methane inhibition in combination with Bromoform (%): 97.2%
[1]; Compound X 31.25 μM
  Fold increase of Compound X combined with bromoform as compared to Compound X alone: 97.2 fold
[1]; Methanococcus maripaludis, Compound X 31.25 μM alone, 24 h, read-out: Methane inhibition of Compound X as a sole compound (%)
  inhibition at 31.25 µM: 1%
Rumen fluid; [3]
  inhibition at 25 µM: 8%
Rumen fluid
  Synergistic effect in methane inhibition: synergistic effects were observed
